Columns and labels:
Experiment in all cases: relative viability (nuclei count vs DMSO), 5 days (fraction); higher = more cells survive
BEN = tested on: BEN
In short: (§1)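 Relative viability was taken as the ratio of nuclei in treated wells to nuclei in vehicle wells. Lung cancer cell lines in 1536-well plates received compounds by pin tool one day after seeding, either one drug alone or a fixed anchor-drug dose plus five library-drug doses (not always all listed) in √10 steps. Nuclei were counted on 4× images after 5 days of treatment, and values are medians of duplicate plates.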

NCI-H460 = tested on: NCI-H460
In short: as §1

NCI-H838 = tested on: NCI-H838
In short: as §1

LOU-NH91 = tested on: LOU-NH91
In short: as §1

NCI-H1437 = tested on: NCI-H1437
In short: as §1

NCI-H1651 = tested on: NCI-H1651
In short: as §1

NCI-H1975 = tested on: NCI-H1975
In short: as §1

NCI-H1734 = tested on: NCI-H1734
In short: as §1

NCI-H1563 = tested on: NCI-H1563
In short: as §1

HCC-366 = tested on: HCC-366
In short: as §1

COR-L23 = tested on: COR-L23
In short: as §1

NCI-H2023 = tested on: NCI-H2023
In short: as §1

SK-LU-1 = tested on: SK-LU-1
In short: as §1

NCI-H358 = tested on: NCI-H358
In short: as §1

NCI-H1650 = tested on: NCI-H1650
In short: as §1

NCI-H1355 = tested on: NCI-H1355
In short: as §1

NCI-H441 = tested on: NCI-H441
In short: as §1

LU99A = tested on: LU99A
In short: as §1

NCI-H2085 = tested on: NCI-H2085
In short: as §1

CAL-12T = tested on: CAL-12T
In short: as §1

## Cc1sc2c(c1C)C(c1ccc(Cl)cc1)=N[C@@H](CC(=O)OC(C)(C)C)c1nnc(C)n1-2 [JQ1] + C[C@@H](Oc1cc(-c2cnn(C3CCNCC3)c2)cnc1N)c1c(Cl)ccc(F)c1Cl [Crizotinib] (partner 1 µM)
BEN; first compound 0.04 µM
  relative viability: 0.67
BEN; first compound 0.1265 µM
  relative viability: 0.84
BEN; first compound 0.4 µM
  relative viability: 0.51
BEN; first compound 1.265 µM
  relative viability: 0.335
BEN; first compound 4 µM
  relative viability: 0.229
NCI-H460; first compound 0.04 µM
  relative viability: 0.806
NCI-H460; first compound 0.1265 µM
  relative viability: 0.597
NCI-H460; first compound 0.4 µM
  relative viability: 0.532
NCI-H460; first compound 1.265 µM
  relative viability: 0.0339
NCI-H460; first compound 4 µM
  relative viability: 0.0299
NCI-H838; first compound 0.04 µM
  relative viability: 0.814
NCI-H838; first compound 0.1265 µM
  relative viability: 0.546
NCI-H838; first compound 0.4 µM
  relative viability: 0.415
NCI-H838; first compound 1.265 µM
  relative viability: 0.27
NCI-H838; first compound 4 µM
  relative viability: 0.172
LOU-NH91; first compound 0.04 µM
  relative viability: 0.719
LOU-NH91; first compound 0.1265 µM
  relative viability: 0.693
LOU-NH91; first compound 0.4 µM
  relative viability: 0.531
LOU-NH91; first compound 1.265 µM
  relative viability: 0.53
LOU-NH91; first compound 4 µM
  relative viability: 0.419
NCI-H1437; first compound 0.04 µM
  relative viability: 0.849
NCI-H1437; first compound 0.1265 µM
  relative viability: 0.896
NCI-H1437; first compound 0.4 µM
  relative viability: 0.666
NCI-H1437; first compound 1.265 µM
  relative viability: 0.29
NCI-H1437; first compound 4 µM
  relative viability: 0.248
NCI-H1651; first compound 0.04 µM
  relative viability: 0.795
NCI-H1651; first compound 0.1265 µM
  relative viability: 0.784
NCI-H1651; first compound 0.4 µM
  relative viability: 0.701
NCI-H1651; first compound 1.265 µM
  relative viability: 0.639
NCI-H1651; first compound 4 µM
  relative viability: 0.548
NCI-H1975; first compound 0.04 µM
  relative viability: 0.891
NCI-H1975; first compound 0.1265 µM
  relative viability: 0.675
NCI-H1975; first compound 0.4 µM
  relative viability: 0.483
NCI-H1975; first compound 1.265 µM
  relative viability: 0.3
NCI-H1975; first compound 4 µM
  relative viability: 0.235
NCI-H1734; first compound 0.04 µM
  relative viability: 0.696
NCI-H1734; first compound 0.1265 µM
  relative viability: 0.659
NCI-H1734; first compound 0.4 µM
  relative viability: 0.569
NCI-H1734; first compound 1.265 µM
  relative viability: 0.449
NCI-H1734; first compound 4 µM
  relative viability: 0.331
NCI-H1563; first compound 0.04 µM
  relative viability: 0.839
NCI-H1563; first compound 0.1265 µM
  relative viability: 0.764
NCI-H1563; first compound 0.4 µM
  relative viability: 0.881
NCI-H1563; first compound 1.265 µM
  relative viability: 0.631
NCI-H1563; first compound 4 µM
  relative viability: 0.615
HCC-366; first compound 0.04 µM
  relative viability: 0.457
HCC-366; first compound 0.4 µM
  relative viability: 0.41
HCC-366; first compound 1.265 µM
  relative viability: 0.243
HCC-366; first compound 4 µM
  relative viability: 0.103
COR-L23; first compound 0.04 µM
  relative viability: 0.608
COR-L23; first compound 0.1265 µM
  relative viability: 0.381
COR-L23; first compound 0.4 µM
  relative viability: 0.46
COR-L23; first compound 1.265 µM
  relative viability: 0.248
COR-L23; first compound 4 µM
  relative viability: 0.12
NCI-H2023; first compound 0.04 µM
  relative viability: 0.544
NCI-H2023; first compound 0.1265 µM
  relative viability: 0.543
NCI-H2023; first compound 0.4 µM
  relative viability: 0.485
NCI-H2023; first compound 1.265 µM
  relative viability: 0.227
NCI-H2023; first compound 4 µM
  relative viability: 0.158
SK-LU-1; first compound 0.04 µM
  relative viability: 0.96
SK-LU-1; first compound 0.1265 µM
  relative viability: 0.615
SK-LU-1; first compound 0.4 µM
  relative viability: 0.481
SK-LU-1; first compound 1.265 µM
  relative viability: 0.193
SK-LU-1; first compound 4 µM
  relative viability: 0.148
NCI-H358; first compound 0.04 µM
  relative viability: 0.498
NCI-H358; first compound 0.1265 µM
  relative viability: 0.43
NCI-H358; first compound 0.4 µM
  relative viability: 0.473
NCI-H358; first compound 1.265 µM
  relative viability: 0.228
NCI-H358; first compound 4 µM
  relative viability: 0.25
NCI-H1650; first compound 0.04 µM
  relative viability: 0.948
NCI-H1650; first compound 0.1265 µM
  relative viability: 0.609
NCI-H1650; first compound 0.4 µM
  relative viability: 0.735
NCI-H1650; first compound 1.265 µM
  relative viability: 0.126
NCI-H1650; first compound 4 µM
  relative viability: 0.141
NCI-H1355; first compound 0.04 µM
  relative viability: 1.01
NCI-H1355; first compound 0.1265 µM
  relative viability: 0.963
NCI-H1355; first compound 0.4 µM
  relative viability: 0.768
NCI-H1355; first compound 1.265 µM
  relative viability: 0.559
NCI-H1355; first compound 4 µM
  relative viability: 0.614
NCI-H441; first compound 0.04 µM
  relative viability: 0.813
NCI-H441; first compound 0.1265 µM
  relative viability: 0.616
NCI-H441; first compound 0.4 µM
  relative viability: 0.713
NCI-H441; first compound 1.265 µM
  relative viability: 0.297
NCI-H441; first compound 4 µM
  relative viability: 0.221
LU99A; first compound 0.04 µM
  relative viability: 0.554
LU99A; first compound 0.1265 µM
  relative viability: 0.533
LU99A; first compound 0.4 µM
  relative viability: 0.278
LU99A; first compound 1.265 µM
  relative viability: 0.231
LU99A; first compound 4 µM
  relative viability: 0.198
NCI-H2085; first compound 0.04 µM
  relative viability: 0.745
NCI-H2085; first compound 0.1265 µM
  relative viability: 0.629
NCI-H2085; first compound 0.4 µM
  relative viability: 0.651
NCI-H2085; first compound 1.265 µM
  relative viability: 0.458
NCI-H2085; first compound 4 µM
  relative viability: 0.448
CAL-12T; first compound 0.04 µM
  relative viability: 0.528
CAL-12T; first compound 0.1265 µM
  relative viability: 0.316
CAL-12T; first compound 0.4 µM
  relative viability: 0.316
CAL-12T; first compound 1.265 µM
  relative viability: 0.133
CAL-12T; first compound 4 µM
  relative viability: 0.103

Reference: the supplement of paper PMC10307832
